Data set [1] can be described thus: Selectivity index, ratio of IC50 for rat L6 cells to IC50 for Plasmodium falciparum K1. Conditions: L6 cells versus Plasmodium falciparum K1, read-out: Ratio IC50. Format: toxicity, cell-based.
Data set [2] can be described thus: Selectivity index, ratio of IC50 for rat L6 cells to IC50 for Trypanosoma brucei rhodesiense STIB900. Format: toxicity, cell-based. Conditions: L6 cells versus Trypanosoma brucei rhodesiense STIB900, read-out: Ratio IC50.
The test system of a further data set is Plasmodium falciparum. The data set is described as follows: Antiplasmodial activity against Plasmodium falciparum K1. Format: functional, organism-based.
In another data set the test system is L6. The data set is described as follows: Cytotoxicity against rat L6 cells. Format: cell-based.
Data set [3] deals with Trypanosoma brucei rhodesiense. Nature of the data set: Antitrypanosomal activity against Trypanosoma brucei rhodesiense STIB900. Format: functional, organism-based.

For orientation: IC50 means the point on the concentration scale where inhibition reaches its midpoint. Higher therefore signals weaker potency. Regarding `CC1=CC(=O)[C@@]23CC[C@@H]4C(C)(C)CCC[C@@]45C[C@]24[C@@H]1C[C@H]1C(C)(C)OC(=C(C(C)C)C3=O)[C@]14O5` [PEROVSKONE B], the selectivity ratio in data set [1] turned out to be 69.6; in data set [2] it was 0.78. The figures for the IC50 (in the data set with Plasmodium falciparum; with L6; in data set [3]) were 0.18 µM, 5.77 µM and 15.9 µM, respectively.

In the case of `C=CC1=C[C@@H]2[C@@H]3[C@]4(C(C)C)C(=O)[C@]5(CC[C@H]6C(C)(C)CCC[C@]67C[C@]25[C@@](OC[C@@]3(C)O)(O7)C4=O)C1` [SALVADIONE C], the selectivity ratio in data set [1] worked out at 86.6; in data set [2], 43.2. Moreover, the IC50 with Plasmodium falciparum was 1.43 µM; in the data set on L6 it was > 90 µM; in data set [3] it was 4.33 µM.
